Entries after “also recorded” stand apart in the source; their conditions may differ. Where two headings read alike, the source gives them in different places.
Legend:
C57 mice = assay: Serum triglyceride levels in mice; type: in vivo
Description: Animals: 48 male C57 mice, SPF grade, 8 weeks old, weighing about 20 g, purchased from Beijing Vital River. All animals maintained a 12-hour alternating circadian rhythm and were given ad libitum access to food and water. […] Mice in the control group were administered a solvent control CMC-Na every day, and mice in each of the administration groups were administered the corresponding drug every day. Intragastric administration was performed for 5 consecutive days, and the mice were given ad libitum access to food and water during administration. Each group of mice was weighed every day, and their body weight, hair, feces, and activities were carefully observed and recorded. Two hours after administration on day 5, blood was collected from the orbit, and the mice were euthanized. The whole blood was left to stand at room temperature for 2 h and centrifuged at 3000 rpm for 15 min, and serum was collected. The serum was placed onto the automatic biochemical analyzer (Google Biotechnology Co., Ltd.) to determine the triglyceride (TG) levels in the serum.

[1] = test system: hepatic fibrosis model mice; assay: Tetrachloromethane-induced hepatic fibrosis in mice; type: in vivo, C57 mice
Description: Animals: 30 male C57 mice, SPF grade, 8 weeks old, weighing about 20 g, purchased from Beijing Vital River. All animals maintained a 12-hour alternating circadian rhythm and were given ad libitum access to food and water. […] The mice were all fed food and water normally, and the modeling lasted for 3 weeks. The mice in the model group and each of the administration groups were injected twice a week with a 25% CCl4 oil solution at a dose of 2 mL/kg, and the mice in the control group were injected with an oil solvent with the same volume. The administration was started at the same time of molding. […] After 3 weeks of administration, the mice were all fed food and water normally. Each group of mice was weighed every day, and their body weight, hair, feces, and activities were carefully observed and recorded. Twenty-four hours after the sixth injection of CCl4, the mice were dissected for sampling. Blood was collected from the orbit, the mice were euthanized, and the liver was collected. The right lobular tissue of the liver was fixed with 4% paraformaldehyde and used for sectioning followed by HE and sirius red staining. Part of liver tissues were divided into 3 parts and snap-frozen in liquid nitrogen for subsequent assays of other indexes. The pre-treated tissue was sent to Wuhan Servicebio Technology Co., Ltd. for preparing HE-stained sections and sirius red-stained sections. The liver tissue stored at −80° C. was taken and placed in liquid nitrogen, and about 200 mg of liver tissue was rapidly cut off. Hydroxyproline in the liver tissue was assayed according to the method in the product's instruction (Beijing Solarbio Science & Technology Co., Ltd., BC0255).

[2] = test system: PPARα/δ downstream target genes; assay: Expression of PPARα/δ downstream target genes in mouse liver and skeletal muscle; type: in vivo, C57 mice; settings: mice, 0.03 and 0.1 mg/kg, three days
Description: C57 mice were divided into three groups, i.e., a control group, a low dose group (0.03 mg/kg), and a high dose group (0.1 mg/kg), with 6 mice in each group. Each group of mice was intragastrically administered compound 1 or a solvent control with the same volume for three consecutive days according to the doses. Three days after administration, the mice were euthanized and dissected for sampling. Liver and skeletal muscle were snap-frozen in liquid nitrogen for subsequent experiments. After extracting RNA in the liver and skeletal muscle, the up-regulation fold of the expression of the PPARα/δ downstream target genes was detected. […] Some of other compounds of the present invention also have similar effects.

[3] = Metabolic stability in human liver microsomes; type: in vitro ADME
Description: A solution of the compound in acetonitrile at a concentration of 500 μM was prepared and diluted in 0.1 M potassium phosphate solution to obtain a 1.5 μM drug working solution. The drug working solution was co-incubated with a human liver microsome working solution at a final concentration of 0.75 mg/mL and a NADPH solution (at a final concentration of 550 μM), and the incubation was terminated by adding an acetonitrile solution at 0 min, 15 min, 30 min, 45 min, and 60 min, respectively. The remaining amount of the compound remained in the system at each time point was detected by using LC/MS, the absolute value k of the slope was measured by plotting the natural logarithm of the percentage of the remaining amount of the compound over time, and the calculation was performed according to the formula: T1/2 (half-life)=ln2/k=0.693/k.

[4] = Pharmacokinetic evaluation in rats; type: in vivo, SD rats; settings: for AUC(0-inf): read-out: Area under the curve AUC(0-∞); for Tmax: read-out: Peak time Tmax
Description: Animals: 6 SPF-grade male SD rats were purchased from Beijing Vital River Laboratory Animal Technology Co., Ltd.
Grouping: rats were divided into 2 groups, with 3 rats in each group; one group was an oral administration group, and the other group was an intravenous injection group. The dose in the oral administration group was 10 mpk, and the dose in the intravenous injection group was 2 mpk.
Experimental procedures: after rats in the intravenous injection group were administered by tail vein injection, about 0.25 mL of blood was collected from the orbit at 0.083 h, 0.25 h, 0.5 h, 1 h, 2 h, 4 h, 6 h, 8 h, and 24 h, respectively, and then heparin sodium was rapidly added for anticoagulation after blood collection. The blood was placed on ice after collection. Rats in the oral administration group were fasted for 12 h before administration and fed 4 h after administration. After the rats were administered orally, about 0.25 mL of blood was collected from the orbit at 0.083 h, 0.25 h, 0.5 h, 1 h, 2 h, 4 h, 6 h, 8 h, and 24 h, respectively, and then heparin sodium was rapidly added for anticoagulation after blood collection. The blood was placed on ice after collection. All samples were centrifuged at 6000 r/min for 3 min in a low-temperature centrifuge, and plasma was obtained after separation. The content of the compound in the plasma was detected via LC-MS/MS-18, and relevant pharmacokinetic parameters were calculated according to the plasma concentration data of different time points.

[5] = human liver microsomes 0.75 mg/mL, NADPH
[6] = male, SD, rat, plasma, 2 mg/kg, intravenous injection, 2 mpk
[7] = male, SD, rat, plasma, 10 mg/kg, oral administration, 10 mpk

metabolic stability in human liver microsomes ([3]; human liver microsomes): very good metabolic stability
CLint scaled [3, 5]: 6.2 mL/min/kg
half-life [3, 5]: > 2 h
pharmacokinetic properties ([4]; in vivo): good pharmacokinetic properties
Half-life T1/2 ([4]; intravenous injection, 2 mpk): 4.82 ± 1.05 h
Peak concentration Cmax ([4]; intravenous injection, 2 mpk): 4306.67 ± 1546.13 ng/mL
AUC(0-inf) [4, 6]: 4250 ± 1240 ng·h/mL
Tmax [4, 6]: 0.08 h
AUC(0-inf) [4, 7]: 22300 ± 3550 ng·h/mL
bioavailability ([4]; male, SD, rat, plasma, 10 mg/kg, oral administration, 10 mpk, read-out: Bioavailability F (%)): 104.7 ± 0.17%
Tmax [4, 7]: 2.25 ± 3.25 h
Half-life T1/2 ([4]; oral administration, 10 mpk): 6.72 ± 1.39 h
Peak concentration Cmax ([4]; oral administration, 10 mpk): 2816.67 ± 1020.41 ng/mL
Compound: Cc1cc(CN2C(=O)CN(c3ccc(C(F)(F)F)cc3)C2=O)cc(C)c1OC(C)(C)C(=O)O [Compound 1, 2-(4-((2,5-Dioxo-3-(4-(trifluoromethyl)phenyl)imidazolidin-1-yl)methyl)-2,6-dimethylphenoxy)-2-methylpropionic Acid]
triglyceride level in mouse serum (FIG. 1) (C57 mice; 1 mg/kg intragastric, 5 consecutive days): significantly reduce the triglyceride level
effect in reducing triglycerides versus positive drugs (C57 mice; compound 1 1 mg/kg vs GFT505 1 mg/kg, pemafibrate 1 mg/kg, fenofibrate 30 mg/kg): significantly more effective in reducing triglycerides than GFT505 and pemafibrate at the equivalent dose; also recorded: superior to fenofibrate
collagen deposition in liver, sirius red staining (FIG. 15) ([1]; CCl4 model): significantly reduce collagen deposition
effect on the hepatic fibrosis mouse model (conclusion) ([1]; CCl4 model): protective effect
inflammatory infiltration in liver, HE staining (FIG. 14) ([1]; CCl4 model): reduce inflammatory infiltration
hydroxyproline content in the liver (FIG. 13) ([1]; CCl4 model, 0.03 and 0.1 mg/kg intragastric daily, 3 weeks): dose-dependently reduce the hydroxyproline content
improving effect on collagen deposition versus GFT505 ([1]; compound 1 0.1 mg/kg vs GFT505 10 mg/kg): superior to that of GFT505 at 10 mg/kg
effect on hydroxyproline content versus GFT505 ([1]; compound 1 0.1 mg/kg vs GFT505 at 30 mg/kg (so in the source)): superior to that of GFT505 at 30 mg/kg
expression of PPARα/δ downstream target genes in liver and skeletal muscle [2]: significantly up-regulated

Source: patent US20250136555A1 (HARBIN MEDISAN PHARMACEUTICAL CO., LTD., priority 2022, published 2025)
